From PMC9956223, “In Vitro Inhibitory Effects of Polyphenols from Flos sophorae immaturus on α-Glucosidase: Action Mechanism, Isothermal Titration Calorimetry and Molecular Docking Analysis” (Foods, 2023)
“Also recorded” adds a separate entry of the source. Marks after values point to notes of the source that are not given here.

Tests used:
α-glucosidase (Yeast) [1] = assay: Omission experiment (model, single polyphenol and recombinant solutions); type: biochemical; details: single polyphenol solution at its content in FSI extract (RU 3.40, QU 0.38, HY 0.34, QI 0.23, KA 0.23 mg/mL)
Method: (§1) The α-glucosidase inhibitory activity of the FSI samples was measured using the method described by Xiao et al., with minor modifications. Each sample solution (0.2 mL) was mixed with 1 mL of α-glucosidase (0.2 U/mL) of pH = 6.8 phosphate buffer solution. After incubation at 37 °C for 15 min, 0.5 mL of 5 mmol/L PNPG in phosphate buffer solution was added. The reaction was terminated by the addition of 1 mL of 0.1 mol/L sodium Na2CO3 […] at 37 °C for 15 min. The absorbance was measured at 405 nm. The α-glucosidase inhibitory activity was calculated using the following Equation (1):(1) α-Glucosidase inhibitory activity(%)=(ΔAcontrol−ΔAsample/ΔAcontrol)×100
Three different solutions were prepared based on different polyphenol fractions (RU (3.40 mg/mL), QU (0.38 mg/mL), HY (0.34 mg/mL), QI (0.23 mg/mL) and KA (0.23 mg/mL): (1) Model solution: a model solution based on the composition of FSI extract. (2) Single polyphenol solution: a component solution containing only a single polyphenol, prepared based on the polyphenol content in FSI extract. (3) Recombinant solution: a reconstituted solution consisting of the missing individual polyphenol. The α-glucosidase inhibitory activities of the model, single polyphenol and recombinant solutions were determined and the contribution of the missing polyphenols to α-glucosidase activity inhibition was calculated.

α-glucosidase (Yeast) [2] = assay: Fluorescence quenching (Stern–Volmer) and thermodynamic parameters; type: binding
Method: An equal volume of polyphenol solution (0.02 mg/mL) was added to 3 mL of α-glucosidase solution (0.05 mg/mL) in 9 separate additions of 10 μL each. The mixture was shaken and then placed in a warm bath at 37 °C for 15 min. The system was scanned for fluorescence at three temperatures (298 K, 303 K, 310 K) using an F-7000 fluorescence spectrometer (Hitachi, Tokyo, Japan) at an excitation wavelength of 280 nm and excitation and emission slits of 5 nm. The fluorescence was scanned in the range of 310–500 nm and the corresponding blank control fluorescence spectra were subtracted to calculate the fluorescence. The Stern–Volmer equation was used to calculate the fluorescence burst constants and determine the type of burst.
Therefore, the spontaneity and binding force of their interactions can be studied by calculating thermodynamic parameters. The values of the free energy change (ΔG), enthalpy change (ΔH) and entropy change (ΔS) can be calculated by Equations (5) and (6). (5) ΔG=[…]=ΔH−TΔS (6) lnKb2/Kb1=[…]ΔH×1/R where R = 8.314 J/(mol·K).

α-glucosidase (Yeast) [3] = assay: α-glucosidase inhibition type and kinetic analysis (Lineweaver–Burk); type: biochemical; details: for type of inhibition: Lineweaver–Burk plots; for Ki: binding to α-glucosidase, Lineweaver–Burk
Method: In 5 mL of the reaction system, different concentrations of PNPG (0.5 mL) were mixed with different concentrations of polyphenols (0.1 mL) in a warm bath at 37 °C for 5 min, α-glucosidase solution (1 mL) was added and the absorbance was recorded at 405 nm in real time. Lineweaver–Burk curve method using the inverse of the PNPG concentration 1/(s) as the horizontal coordinate and the inverse of the enzymatic reaction rate 1/v as the vertical coordinate, and the type of inhibition was determined from the characteristics of the graph.

α-glucosidase (Yeast) [4] = assay: α-glucosidase inhibitory activity (PNPG substrate, absorbance at 405 nm); type: biochemical; details: α-glucosidase 0.2 U/mL, pH 6.8, 37 °C
Method: as §1

SMILES | α-Glucosidase Inhibition Rate of Omitted Compounds (α-glucosidase (Yeast) [1]) [%] | KSV (α-glucosidase (Yeast) [2]; 298 K) [L/mol] | Kq (α-glucosidase (Yeast) [2]; 298 K) [M⁻¹ s⁻¹] | KSV (α-glucosidase (Yeast) [2]; 303 K) [L/mol] | Kq (α-glucosidase (Yeast) [2]; 303 K) [M⁻¹ s⁻¹] | KSV (α-glucosidase (Yeast) [2]; 310 K) [L/mol] | Kq (α-glucosidase (Yeast) [2]; 310 K) [M⁻¹ s⁻¹] | type of inhibition (α-glucosidase (Yeast) [3]; listed as HY) | Ki (α-glucosidase (Yeast) [3]) [mM] | Ki (α-glucosidase (Yeast) [3]; listed as HY) [mM] | IC50 (α-glucosidase (Yeast) [4]) | type of inhibition (α-glucosidase (Yeast) [3]; listed as KA) | type of inhibition (α-glucosidase (Yeast) [3]; listed as QU) | type of inhibition (α-glucosidase (Yeast) [3]; listed as QI) | type of inhibition (α-glucosidase (Yeast) [3]; listed as RU)
O=c1c(O[C@@H]2O[C@H](CO)[C@H](O)[C@H](O)[C@H]2O)c(-c2ccc(O)c(O)c2)oc2cc(O)cc(O)c12 [Hyperoside, hyperoside] | 75.00 ± 0.32 | 124300 | 1.243e+13 | 89600 | 8.96e+12 | 111700 | 1.117e+13 | mixed type of inhibition; also recorded: mixed inhibitors | 3.79 | 3.91 | 12.77 ± 0.07 ^d mg/mL | – | – | – | –
COc1cc(-c2oc3cc(O)cc(O)c3c(=O)c2O)ccc1O [Isorhamnetin, isorhamnetin] | – | – | – | – | – | – | – | – | 15.1 | – | 255.00 ± 0.11 ^g mg/mL | – | – | – | –
O=c1c(O)c(-c2ccc(O)cc2)oc2cc(O)cc(O)c12 [Kaempferol, kaempferol] | 81.00 ± 0.12 | 222300 | 2.223e+13 | 493300 | 4.933e+13 | 424600 | 4.246e+13 | – | – | – | – | mixed type of inhibition; also recorded: mixed inhibitors | – | – | –
O=C(O)c1ccc(O)c(O)c1 [Protocatechuic acid, protocatechuic acid] | – | – | – | – | – | – | – | – | 17.7 | – | 369.00 ± 0.11 ^h mg/mL | – | – | – | –
O=c1c(O)c(-c2ccc(O)c(O)c2)oc2cc(O)cc(O)c12 [Quercetin, quercetin] | 89.00 ± 0.25 | 107100 | 1.071e+13 | 75200 | 7.52e+12 | 55500 | 5.55e+12 | – | – | – | – | – | mixed type of inhibition; also recorded: mixed inhibitors | – | –
C[C@@H]1O[C@@H](Oc2c(-c3ccc(O)c(O)c3)oc3cc(O)cc(O)c3c2=O)[C@H](O)[C@H](O)[C@H]1O [Quercitrin, quercitrin] | 77.00 ± 0.20 | 74500 | 7.45e+12 | 78700 | 7.87e+12 | 54500 | 5.45e+12 | – | 5.31 | – | 25.37 ± 0.13 ^e mg/mL | – | – | mixed type of inhibition; also recorded: mixed inhibitors | –
C[C@@H]1O[C@@H](OC[C@H]2O[C@@H](Oc3c(-c4ccc(O)c(O)c4)oc4cc(O)cc(O)c4c3=O)[C@H](O)[C@@H](O)[C@@H]2O)[C@H](O)[C@H](O)[C@H]1O [Rutin] | 69.00 ± 0.11 | 45000 | 4.5e+12 | 93700 | 9.37e+12 | 93400 | 9.34e+12 | – | – | – | – | – | – | – | mixed type of inhibition; also recorded: mixed inhibitors
